According to US4260599A, “Antifibrotic substance P-1894B” (Takeda Chemical Industries, Ltd., priority 1978, dated 1981):

Tests used:
[1] = molecular target: T1, protocollagen proline hydroxylase (Gallus gallus, UniProt P16924); assay: Protocollagen proline hydroxylase inhibitor activity; assay type: biochemical; conditions: partially purified enzyme from chick embryos; substrate (Pro-Pro-Gly)5.4H2O
T1 construct: partially purified enzyme preparation obtained from chick embryos; from tissue; host or cells: chick embryos
T1 sequence (P16924 1-516): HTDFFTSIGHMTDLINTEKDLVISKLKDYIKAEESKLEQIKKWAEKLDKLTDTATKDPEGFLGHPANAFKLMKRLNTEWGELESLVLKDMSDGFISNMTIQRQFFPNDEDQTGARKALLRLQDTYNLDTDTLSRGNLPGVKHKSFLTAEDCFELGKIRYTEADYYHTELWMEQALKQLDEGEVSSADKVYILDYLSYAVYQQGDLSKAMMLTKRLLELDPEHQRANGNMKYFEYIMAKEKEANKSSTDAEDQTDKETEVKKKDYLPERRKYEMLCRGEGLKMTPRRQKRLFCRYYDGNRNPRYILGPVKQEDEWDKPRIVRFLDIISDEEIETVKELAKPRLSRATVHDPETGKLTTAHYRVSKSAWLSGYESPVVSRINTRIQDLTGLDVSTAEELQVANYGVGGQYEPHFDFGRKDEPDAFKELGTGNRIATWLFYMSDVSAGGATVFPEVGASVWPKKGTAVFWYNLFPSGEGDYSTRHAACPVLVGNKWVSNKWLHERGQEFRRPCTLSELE
T1 sequence (P09102 23-515 partner): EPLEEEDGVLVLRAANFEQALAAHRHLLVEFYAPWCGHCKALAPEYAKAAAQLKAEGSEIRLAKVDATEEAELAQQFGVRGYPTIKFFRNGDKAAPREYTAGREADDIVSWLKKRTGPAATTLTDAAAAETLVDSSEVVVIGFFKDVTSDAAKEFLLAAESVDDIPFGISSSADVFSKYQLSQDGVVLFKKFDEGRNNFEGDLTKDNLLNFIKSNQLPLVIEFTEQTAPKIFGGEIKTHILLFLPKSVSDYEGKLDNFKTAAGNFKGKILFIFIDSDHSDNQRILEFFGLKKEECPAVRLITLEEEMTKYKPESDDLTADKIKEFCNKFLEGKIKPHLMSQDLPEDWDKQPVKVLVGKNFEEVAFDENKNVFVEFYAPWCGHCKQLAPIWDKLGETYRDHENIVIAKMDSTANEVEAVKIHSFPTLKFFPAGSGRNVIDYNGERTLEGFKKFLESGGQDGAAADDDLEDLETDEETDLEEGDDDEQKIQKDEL

[2] = system: collagen biosynthesis (uterus); assay: Collagen biosynthesis inhibiting activity in uteri of 17β-estradiol-treated rats; assay type: in vivo, Sprague-Dawley rats
Method: (§1) Basically in accordance with a procedure described by R. A. Salvador et al [Arch. Biochem. Biophys. 174, 382 (1976)], 0.3 mg/kg was intraperitoneally administered to Sprague-Dawley rats (female, 3 weeks old) once daily for 6 days and the amounts of collagen and non-collagenous proteins in the uteri were compared with the figures for control.

pKa by titrimetry = assay type: physicochemical; conditions: in 66.7% aqueous DMF
[3] = system: hydroxyproline content of the liver (collagen biosynthesis); assay: Carbon tetrachloride-induced hepatic cirrhosis: hydroxyproline content of the liver; assay type: in vivo, Sprague-Dawley rats; conditions: for Hydroxyproline: liver, 4 weeks, CCl4 group 145.8 ± 18.3
Method: (§2) Female Sprangue-Dawley rats weighing approximately 110 g each were divided into 4 groups. Group I (control) received saline (1 ml/rat) and Groups II, III and IV received 10% CCl4 -olive oil mixture (1 ml/rat) intraperitoneally twice weekly for a total 8 doses. Groups III and IV received P-1894B orally with food for 4 weeks. Average doses of P-1894B in Groups III and IV were 3.25 and 6.16 mg/kg/day, respectively. The rats were sacrificed a day after the last injection and the livers were immediately removed for the assays.
Hydroxyproline content of the liver was measured in 6 N HCl hydrolysate (110° C., 22h) by the method of Blumenkrantz et al [Anal. Biochem. 63, 331-340 (1975)].

[4] = Carbon tetrachloride-induced hepatic cirrhosis: body weight; assay type: in vivo, Sprague-Dawley rats; conditions: 4 weeks
Method: as §2

[5] = system: protocollagen proline hydroxylase; assay: Carbon tetrachloride-induced hepatic cirrhosis: protocollagen proline hydroxylase activity in the liver; assay type: in vivo, Sprague-Dawley rats; conditions: for Protocollagen proline hydroxylase: liver, 4 weeks, CCl4 group 504 ± 87
Method: as §2
A 10% homogenate of the liver was prepared in 20 mM Tris-HCl buffer, pH 7.5, containing 0.2 M NaCl, 0.1 M glycine, 5×10^-5 M 1,4-dithiothreitol and 0.1% Triton (polyethylene glycol p-isooctylphenyl ether) X-100 using a Polytron homogenizer. The homogenate was centrifuged at 15,000 g for 20 min and the clear supernatant was assayed for proline hydroxylase activity by the method of Hutton et al [Anal. Biochem. 16, 384-394 (1966)]. The protein content of the homogenate was measured by the method of Lowry et al [J. Biol. Chem. 193, 265-275 (1951)] using bovine serum albumin as the standard.

[6] = Body weight of rats in the uterus collagen test; assay type: in vivo, Sprague-Dawley rats; conditions: 0.3 mg/kg i.p. once daily for 6 days + 17β-estradiol (5 μg); groups of 4 rats
Method: as §1

Solubility = assay type: physicochemical
[7] = 0.3 mg/kg i.p. once daily for 6 days + 17β-estradiol (5 μg)
[8] = 6.16 mg/kg/day, p.o., compared to livers of CCl4-fibrotic rats
[9] = CCl4 + P-1894B 3.25 mg/kg/day orally with food
[10] = CCl4 + P-1894B 6.16 mg/kg/day orally with food, P<0.05 vs CCl4, n=5

Structure (SMILES): C[C@@H]1O[C@@H](O[C@H]2CC[C@H](O[C@H]3[C@H](O)C[C@H](c4ccc5c(c4O)C(=O)C4=C(C5=O)[C@@]5(O)C(=O)C[C@](C)(O[C@H]6CC[C@H](O[C@H]7C=CC(=O)[C@H](C)O7)[C@H](C)O6)C[C@@]5(O)C=C4)O[C@@H]3C)O[C@H]2C)C=CC1=O [P-1894B]
- concentration required for a 50% inhibition of 100 μg (as protein) of partially purified enzyme [1]: about 7 μg/ml
- inhibition of the biosynthesis of collagen (in words) ([2]; 0.3 mg/kg i.p. once daily for 6 days): inhibited the biosynthesis of collagen specifically and significantly
- % Inhibition, Collagen [2, 7]: 78%
- % Inhibition, Non-collagenous protein [2, 7]: -21%
- Non-collagenous protein in uterus ([2]; 0.3 mg/kg i.p. once daily for 6 days + 17β-estradiol (5 μg), = total protein - collagen, control (2) 24.21 ± 7.21): 26.99 ± 4.67 mg
- Collagen in uterus ([2]; 0.3 mg/kg i.p. once daily for 6 days + 17β-estradiol (5 μg), groups of 4 rats, control (2) 4.39 ± 0.16, p < 0.01 vs control (2)): 3.41 ± 0.22 mg
- Total protein of uterus ([2]; 0.3 mg/kg i.p. once daily for 6 days + 17β-estradiol (5 μg), groups of 4 rats, control (2) 28.6 ± 7.3): 30.4 ± 5.0 mg
- PKa (pKa by titrimetry): 10.15
- hydroxyproline content in the liver (in words) [3, 8]: significantly decreased
- Hydroxyproline [3, 9]: 132.4 ± 29.6 μg/100 mg of protein
- Hydroxyproline [3, 10]: 122.6 ± 14.0 μg/100 mg of protein
- weight, final ([4]; CCl4 + P-1894B 3.25 mg/kg/day orally with food, initial 112 ± 9): 199 ± 19 g
- weight, final ([4]; CCl4 + P-1894B 6.16 mg/kg/day orally with food, initial 111 ± 5): 198 ± 9 g
- specific activity of protocollagen proline hydroxylase in the liver (in words) [5, 8]: significantly decreased
- Protocollagen proline hydroxylase [5, 9]: 457 ± 68 dpm/mg of protein
- Protocollagen proline hydroxylase [5, 10]: 357 ± 15 dpm/mg of protein
- Body weight of rats [6]: 72 ± 5 g
- Solubility (Solubility; in chloroform, dioxane, ethyl acetate, dimethylsulfoxide, acetone, methyl ethyl ketone, pyridine, methanol, ethanol, benzene, toluene, diethyl ether and 0.1 N NaOH): Readily soluble or soluble
- Solubility (Solubility; in petroleum ether, n-hexane and cyclohexane): sparingly soluble or insoluble
